Results reported in ChEMBL document CHEMBL3044861, “Synthesis and Herbicidal Activity of New 2-(1-Carbamoyl-1, 2, 4-triazol-3-ylsulfonyl) alkanoates” (J Pestic Sci, 2002).

Tests used:
Oryza sativa [1] = experiment: Toxicity in Oryza sativa (rice) assessed as injury at 25 g/ha pre-emergence application under paddy conditions by crop safety assay; type: organism-based; settings: in vivo, other
[2] = tested on: Schoenoplectiella juncoides; experiment: Herbicidal activity against Schoenoplectiella juncoides assessed as killing at 10 g/ha pre-emergence application under paddy conditions; type: functional
[3] = tested on: Schoenoplectiella juncoides; experiment: Herbicidal activity against Schoenoplectiella juncoides assessed as killing at 25 g/ha pre-emergence application under paddy conditions; type: functional
Pontederia vaginalis [4] = experiment: Herbicidal activity against Monochoria vaginalis assessed as killing at 10 g/ha pre-emergence application under paddy conditions; type: functional
[5] = Herbicidal activity against broadleaf weed assessed as killing at 10 g/ha pre-emergence application under paddy conditions; type: functional
Pontederia vaginalis [6] = experiment: Herbicidal activity against Monochoria vaginalis assessed as killing at 25 g/ha pre-emergence application under paddy conditions; type: functional
[7] = Herbicidal activity against broadleaf weed assessed as killing at 25 g/ha pre-emergence application under paddy conditions; type: functional
Echinochloa oryzicola [8] = experiment: Herbicidal activity against Echinochloa oryzicola assessed as killing at 10 g/ha pre-emergence application under paddy conditions; type: functional
Echinochloa oryzicola [9] = experiment: Herbicidal activity against Echinochloa oryzicola assessed as killing at 25 g/ha pre-emergence application under paddy conditions; type: functional
Oryza sativa [10] = experiment: Toxicity in Oryza sativa (rice) assessed as injury at 10 g/ha pre-emergence application under paddy conditions by crop safety assay; type: organism-based; settings: in vivo, other
[11] = Octanol-water partition coefficient, log K of the compound; type: physicochemical; settings: read-out: log K
Echinochloa oryzicola [12] = experiment: Herbicidal activity against Echinochloa oryzicola assessed as killing pre-emergence application under paddy conditions; type: functional
Oryza sativa [13] = experiment: Toxicity in Oryza sativa (rice) assessed as injury at 50 g/ha pre-emergence application under paddy conditions by crop safety assay; type: organism-based; settings: in vivo, other
[14] = tested on: Schoenoplectiella juncoides; experiment: Herbicidal activity against Schoenoplectiella juncoides assessed as killing at 50 g/ha pre-emergence application under paddy conditions; type: functional
Pontederia vaginalis [15] = experiment: Herbicidal activity against Monochoria vaginalis assessed as killing at 50 g/ha pre-emergence application under paddy conditions; type: functional
[16] = Herbicidal activity against broadleaf weed assessed as killing at 50 g/ha pre-emergence application under paddy conditions; type: functional
Echinochloa oryzicola [17] = experiment: Herbicidal activity against Echinochloa oryzicola assessed as killing at 50 g/ha pre-emergence application under paddy conditions; type: functional
Zea mays = experiment: Herbicidal activity against Zea mays (maize)assessed as killing at 500 g/ha pre-emergence application upland paddy conditions measured after 14 days; type: functional
Chenopodium album = experiment: Herbicidal activity against Chenopodium album assessed as killing at 500 g/ha pre-emergence application upland paddy conditions measured after 14 days; type: functional
Digitaria ciliaris = experiment: Herbicidal activity against Digitaria ciliaris assessed as killing at 500 g/ha pre-emergence application upland paddy conditions measured after 14 days; type: functional
Echinochloa crus-galli = experiment: Herbicidal activity against Echinochloa crus-galli (barnyard grass) assessed as killing at 500 g/ha pre-emergence application upland paddy conditions measured after 14 days; type: functional

Row | Structure (SMILES) | Activity (Oryza sativa [1]) [%] | Activity [3] [%] | Activity (Pontederia vaginalis [6]) [%] | Activity [7] [%] | Activity (Echinochloa oryzicola [9]) [%] | logP [11] | log(1/ED80) (Echinochloa oryzicola [12]) | Activity (Oryza sativa [13]) [%] | Activity [14] [%] | Activity (Pontederia vaginalis [15]) [%] | Activity [16] [%] | Activity (Echinochloa oryzicola [17]) [%] | other results
1 | CCN(CC)C(=O)n1cnc(S(=O)(=O)[C@H](CC(C)C)C(=O)OC(C)C)n1 | 10 | 40 | 40 | 60 | 90 | – | – | – | – | – | – | – | Activity [2]: 10%; Activity (Pontederia vaginalis [4]): 10%; Activity [5]: 40%; Activity (Echinochloa oryzicola [8]): 50%; Activity (Oryza sativa [10]): 10%
2 | CCN(CC)C(=O)n1cnc(S(=O)(=O)C(CC(C)C)C(=O)OC(C)C)n1 (configuration not stated) | 10 | 60 | 40 | 90 | 90 | 0.89 | 1.41 | 10 | 100 | 100 | 100 | 100 | Activity [2]: 30%; Activity (Pontederia vaginalis [4]): 10%; Activity [5]: 40%; Activity (Echinochloa oryzicola [8]): 40%; Activity (Oryza sativa [10]): 10%
3 | CCOC(=O)C(CC(C)C)S(=O)(=O)c1ncn(C(=O)N(CC)CC)n1 (configuration not stated) | 10 | 30 | 40 | 50 | 90 | 0.78 | 1.27 | 10 | 90 | 90 | 60 | 100 | –
4 | CCN(CC)C(=O)n1cnc(S(=O)(=O)c2c(C)cc(C)cc2C)n1 [CAFENSTROLE] | 10 | 90 | 100 | 90 | 100 | – | – | 10 | 100 | 100 | 100 | 100 | Activity (Zea mays): 60%; Activity (Chenopodium album): 100%; Activity (Digitaria ciliaris): 90%; Activity (Echinochloa crus-galli): 90%
5 | CCN(CC)C(=O)n1cnc(S(=O)(=O)C(CC(C)C)C(=O)OCC(C)C)n1 (configuration not stated) | 10 | 30 | 40 | 30 | 40 | 1.03 | 0.91 | 10 | 100 | 100 | 60 | 80 | –
6 | CCCCOC(=O)C(CC(C)C)S(=O)(=O)c1ncn(C(=O)N(CC)CC)n1 (configuration not stated) | 10 | 100 | 90 | 60 | 100 | 1.04 | 1.3 | 10 | 100 | 100 | 80 | 100 | –
7 | CCCCCOC(=O)C(CC(C)C)S(=O)(=O)c1ncn(C(=O)N(CC)CC)n1 (configuration not stated) | 10 | 10 | 10 | 30 | 40 | 1.18 | 0.62 | 10 | 40 | 10 | 60 | 40 | –
8 | CCN(CC)C(=O)n1cnc(S(=O)(=O)C(CC(C)C)C(=O)OC(C)(C)C)n1 (configuration not stated) | 10 | 10 | 10 | 10 | 30 | 0.99 | 1 | 10 | 10 | 10 | 10 | 90 | –
9 | CCN(CC)C(=O)n1cnc(S(=O)(=O)C(CC(C)C)C(=O)OC)n1 (configuration not stated) | 10 | 80 | 50 | 70 | 100 | 0.68 | 1.26 | 10 | 100 | 100 | 100 | 100 | Activity (Zea mays): 40%; Activity (Chenopodium album): 100%; Activity (Digitaria ciliaris): 100%; Activity (Echinochloa crus-galli): 100%
